Results reported in paper PMC9241644, “Evaluation of Novel Quorum Sensing Inhibitors Targeting Auto-Inducer 2 (AI-2) for the Control of Avian Pathogenic Escherichia coli Infections in Chickens” (Microbiology Spectrum, 2022).

What was measured:
[1] = tested on: Rif^R APEC O78; assay: Efficacy of QSIs in APEC-infected chickens (oral gavage pilot); type: in vivo, Escherichia coli; conditions: Table S1, oral gavage pilot
Protocol: The chicken experiment was carried out using 1-day-old broiler chickens (Mayer Hatchery, OH, USA). Feed and water were given ad libitum. Chickens (n = 6/group) were administered with the QSIs (QSI-1, QSI-2, QSI-5 − 8, QSI-10, ChemBridge, San Diego, CA); previously designated as C1, C2, C5, C6, C7, C8, C10 ([17]) using oral gavage. These compounds were selected based on their high efficacy in in vitro studies and the doses correspond to 30X of the initial in vitro screening concentration ([17]). The QSIs were suspended in dimethyl sulfoxide (DMSO; used as a vehicle) and administered once daily for 5 successive days (starting from day 4 to day 8). The first dose was administered 1 day before the challenge, followed by the second dose on the challenge day (2 h before challenge), followed by three additional doses on subsequent days. Feeders were removed 1 h prior to the treatment and replaced 1 h after the treatment. Chickens were challenged subcutaneously (s/c) on day 5 with Rif^R APEC O78 (1 × 10^7 CFU/bird) in PBS using syringe (27 gauge, 0.5 in.). The challenge dose, which […], was chosen based on preliminary experiments conducted with different infection routes (subcutaneous s/c, intra-tracheal and intra-airsacs) and different doses (10^6, 10^7, and 10^8 CFU/chicken). […] Therefore, we selected this challenge dose and route for evaluation of QSIs in chickens ([34]). The positive (PC; infected with APEC O78 and DMSO treated) and negative (NC; non-infected and non-treated) control groups were included.
Chickens were monitored for clinical signs for 8 DPI. Any chickens moribund during this period were humanely euthanized and necropsied to determine bacterial load in the internal organs (liver, heart, lung, and kidney). Internal organs were aseptically collected, weighed and suspended in 1× PBS, the amount of PBS added was adjusted based on the organ size to make a suspension, the organ size and amount of PBS added were included in the final calculation of the CFU. The samples were homogenized, serially diluted 10-fold, plated on MacConkey agar (Remel, CA, USA) containing 50 μg/mL rifampicin, and incubated at 37°C for 24 h to determine the CFU/g. Pathological lesions severity in internal organs (pericarditis, perihepatitis, airsacculitis, and lung congestion) was scored as described previously ([21], [59]). At 8 DPI, the remaining chickens were humanely euthanized and necropsied, lesions were scored, and the APEC load was quantified in internal organs as described above.

[2] = PK profile of QSI-5 and SDM in chicken plasma (LC-MS); type: in vivo, chickens
Protocol: The amount of QSI-5 and SDM in chicken plasma was measured using LC-MS. The optimized dose of QSI-5 (1 mg/L) and the therapeutic dose of SDM (495.323 mg/L) (0.05%) were administered orally as a single dose. Blood was collected individually from five chickens per group at different time points (0 h, 0.5 h, 1 h, 2 h, 4 h, 8 h, 12 h, 24 h) after administration of QSI-5 and SDM in vacutainer EDTA (10.8 mg) tubes (Becton, Dickinson, NJ, USA), blood was placed on ice for 1 h to clot, plasma was separated by centrifuging at 2,000 × g for 10 min at 4°C and stored at −80°C °C for LC-MS analysis. Plasma protein was precipitated by adding cold methanol and 10 μL (1 μg/mL) of an internal standard (IS) heavy-labeled phenylalanine (dissolved in 0.1% formic acid) was added to each 100 μL aliquot. The mixture was then incubated at −20°C for 30 min and centrifuged at 1300 × g for 25 min at 2°C. Sixty μL of the supernatant was pipetted into LC vials. For standard calibration, solutions of 0.0, 0.001, 0.005, 0.01, 0.05, 0.1, 0.5, 1, and 5 μg/mL of QSI-5 and SDM were prepared and 20 μL of each standard solution was added to 80 μL of cold methanol and IS as mentioned above. All samples were run by injecting 5 μL on an Agilent Poroshell 120 SB-C18 (2 × 100 mm in diameter, 2.7 μm particle sizes). The LC system (Thermo Fisher Scientific UltiMate 3000 HPLC) was used with solvent A (10 mM ammonium formate and 0.1% formic acid) and solvent B (methanol with a flow rate of 200 μL/min). The gradient was set to 2% B at 2 min, increased from 2% to 20% at 5 min, 40% at 7.5 min, and reached 90% after 9 min. The gradient was sustained at 90% B for 11 min and then decreased to 2% at 12 min and was held for equilibration until the run ended after 15 min. The mass spectrometer (Thermo Fisher Scientific Quantiva Triple Quadrupole) was set to multiple reactions monitoring mode (SRM) with a heated electrospray ionization source (ESI) in positive mode at 3.5 kV. Drug targets were monitored for QSI-5 at transitions 309.26→105.1 m/z and 309.26→203.15 m/z at 28 and 20 V collision energy, respectively, and for SDM at transitions 311.11→156.11 m/z and 311.11→245.07 m/z at 21 and 18 V CE. The analysis of plasma samples was performed in Campus Chemical Instrumentation Center, Mass Spectrometry and Proteomics Facility (CCIC, MS&P), The Ohio State University (https://live-ccic.pantheonsite.io/MSP).

[3] = based on the observations during dosing in drinking water
[4] = single oral dose (QSI-5 1 mg/L, SDM 495.323 mg/L)

Cc1ccc(CN2CCN(CCCc3ccccc3)CC2)cc1 [QSI-5]
Average lesion severity, Lung ([1]; lesion score, PC 1.25): 0.17 | Average lesion severity, Liver ([1]; lesion score, PC 1.75): 0.33 | Average lesion severity, Airsac ([1]; lesion score, PC 2.00): 0.17 | Average lesion severity, Heart ([1]; lesion score, PC 2.25): 0.33 | Mortality rate % (Nr.) ([1]; n = 6/group, 8 DPI, PC 66.6 (4/6)): 0% | Average APEC load, Liver ([1]; PC 5.95): 0.72 Log CFU/g of tissue | Average APEC load, Heart ([1]; PC 5.98): 0.58 Log CFU/g of tissue | Average APEC load, Kidney ([1]; PC 6.81): 0.67 Log CFU/g of tissue | Average APEC load, Lung ([1]; PC 6.83): 0.75 Log CFU/g of tissue | half-life ([2]; single oral dose): short half-life | time by which excreted ([2]; single oral dose): ≤ 24 HPT | maximum concentration in plasma (Cmax) [2, 4]: 0.76 ng/mL | time of peak concentration in plasma [2, 4]: 2 HPT | time at which absorbed / detected in blood ([2]; single oral dose (QSI-5 1 mg/L, SDM 495.323 mg/L), h posttreatment): 0.5 HPT | aqueous solubility [3]: good aqueous solubility
